For data set [1] the following is noted: cited from earlier work.
Data set [2] is described as follows: Anesthetic effect of lidocaine in intra-articular collagen injections. The note with it: 1 mL intra-articular injections of collagen formulation with 0.3% lidocaine. It counts as in vivo.
The conditions of data set [3]: in vivo.
Another data set has as its system research monkeys. Particulars: cited from earlier work.
For data set [4] the following is noted: cited from earlier work. The source holds these as a separate data set.
The conditions of data set [5]: adults; cited from earlier work.
For the next data set, the system named is mice. Particulars: cited from earlier work.
For data set [6] the following is noted: standard mutagenicity and clastogenicity assays; cited from earlier work.

Read-outs that look alike come from different tables or passages of the source.

The term LD50 denotes the dose at which mortality reaches 50%.

As for `CCN(CC)CC(=O)Nc1c(C)cccc1C` [lidocaine], the “dosage required to achieve the same clinical efficacy as bupivacaine” value in data set [1] (equivalent indications, relative to bupivacaine) is given as 2 to 10 times. Moreover, the “duration of anesthetic effects of lidocaine” value in data set [2] was “less than an hour”. The “duration of anesthetic effects of lidocaine, in most cases” value in data set [2] (in most cases) is “less than 10 minutes”.
In the case of collagen, the “time collagen remains in the knee joints” value in data set [3] was “up to 8 weeks”.
With `CCCCN1CCCCC1C(=O)Nc1c(C)cccc1C` (stereo not shown) [bupivacaine], the “single dose that produced seizures” value in the data set with research monkeys is 4.4 mg/kg. The “change in VAS pain scores at 1 hour” value in data set [1] (12.5 mg intra-articular, knees of osteoarthritis patients, 1 hour post-administration) was “statistically significant (p=0.007) fall”. Besides, the “effect on VAS pain scores after 1 hour” value in data set [1] (12.5 mg intra-articular, knees of osteoarthritis patients, after 1 hour) is “no significant effects”. For the same compound, the duration of analgesia in data set [1] (intra-articular injection) was 2 to 12 h. For the same compound, the “intra-articular dose that produces analgesia of the joint” value in data set [1] (intra-articular) is recorded as “approximately 10 mg”. The “duration of pain relief” value in data set [1] (local anesthetic injected into the operated joint at the end of arthroscopy) is given as “about 6 hours”. Besides, in data set [4] (over a 24 hour period), the maximum dose is 400 mg. Besides, in data set [4] (single bolus), the “therapeutic apparently safe dose” value is “approximately 225 mg”. The half life entry in data set [5] is recorded as “approximately 3.5 hours”. In addition, the figures for the LD50 in the data set with mice (intravenous) and with mice (subcutaneous) were 6 to 8 mg/kg and 38 to 54 mg/kg, respectively.
In the case of `CCCCN1CCCC[C@H]1C(=O)Nc1c(C)cccc1C` [levobupivacaine], the genotoxicity entry in data set [6] is listed as “non-genotoxic”.

The values above are taken from US7119062B1, “Methods and compositions for improved articular surgery using collagen” (Neucoll, Inc., priority 2001, dated 2006).
